Reference: patent US11479587B2, “Cationic intrinsically disordered antimicrobial peptides” (priority 2016, dated 2022)
Converted amounts (≈) assume the structure as drawn. “And” between values parts separate entries of the source, which are not always exact repeats. Equal values may be shown once. Non-standard residues stand in square brackets, D forms with d. Residues, ends and D or L forms follow the SMILES beside them. No end group written: not given here. *: point of attachment. Palmitoyl = CCCCCCCCCCCCCCCC(=O)*; dOrn = NCCC[C@@H](N)C(=O)O

Tests used:
[1] = system: P. aeruginosa ATCC 10145; test: CFU-assay, P. aeruginosa-cidal activity; format: cell-based, Pseudomonas aeruginosa
[2] = system: Candida albicans ATCC 24433; test: CFU-assay, Candida albicans-cidal activity; format: cell-based; details: for MBC90 / MBC100: pH 5.5, 1% TSB
Method: Thus, within the present invention, the antimicrobial activity is generally measured in nutrient deficient 10 mM sodium phosphate buffer pH 5.5, containing 0.25% glucose, using the CFU-assay according to Steinberg and Lehrer, 1997 (supra), unless otherwise indicated. The CFU-assay allows determination of the minimal bactericidal concentration (MBC, e.g., MBC90 and MBC100; i.e. the concentration of compound required to achieve a specified reduction in bacterial cell number (microbial death or killing)). […]
HR 1-17 affects C. albicans ATCC 24433 with highest activity at pH 5.5 in the absence of TSB in the medium (see Tables 12, 24). […] Furthermore, the substitution of any of the Arg residues by Gly leads to a dramatic reduction or loss of candidacidal activity (see Table 24).

[3] = Cytotoxicity (resazurin) assay
Method: For the cytotoxicity (resazurin) assay, HEK293 cells were counted manually in a Neubauer haemocytometer and plated at a density of 4000 cells/well into each well of the 384-well plates containing the 25×(2 μl) concentrated compounds. The medium used was Dulbecco's modified eagle medium (DMEM) supplemented with 10% foetal bovine serum (FBS). Cells were incubated together with the compounds for 20 h at 37° C., 5% CO2. To measure cytotoxicity, 5 μl (equals 100 μM final) resazurin was added to each well after incubation, and incubated for further 3 h at 37° C. with 5% CO2.
After final incubation fluorescence intensity was measured as F ex 560/10 nm, em 590/10 nm (F560/590) using a Tecan M1000 Pro monochromator plate reader. […] The concentration dependent percentage cytotoxicity was fitted to a dose response function (using Pipeline Pilot) and CC50 values determined.

[4] = Hemolysis assay; format: cell-based
Method: For the hemolysis assays EDTA-blood was centrifuged at 800×g for 10 min, and the plasma and buffy coat were removed. The erythrocytes were washed three times and resuspended in 5% PBS, pH 7.4. The cells were then incubated with end-over-end rotation for 1 h at 37° C. in the presence of different concentrations of peptides (0, 3, 10, 30, 60 μm). 0.1% Triton X-100 (Sigma-Aldrich) served as positive control. The samples were then centrifuged at 800×g for 10 min.
The absorbance of hemoglobin release was measured at 540 nm and is expressed as % of Triton X-100-induced hemolysis. These values of triplicates were plotted with Graph Pad Prism 4 as a dose response curve and the CC50 was determined.

[5] = system: S. aureus ATCC 6538; test: CFU-assay, S. aureus-cidal activity; format: cell-based, Staphylococcus aureus; details: pH 5.5
Method: Thus, within the present invention, the antimicrobial activity is generally measured in nutrient deficient 10 mM sodium phosphate buffer pH 5.5, containing 0.25% glucose, using the CFU-assay according to Steinberg and Lehrer, 1997 (supra), unless otherwise indicated. The CFU-assay allows determination of the minimal bactericidal concentration (MBC, e.g., MBC90 and MBC100; i.e. the concentration of compound required to achieve a specified reduction in bacterial cell number (microbial death or killing)).
Various peptides corresponding to repeat domains of hornerin (HR 1-11: HRNR 2606-2628; HR 1-17: HRNR 2656-2684 and HR 1-18: HRNR 2656-2677) were tested for P. aeruginosa ATCC 10145-cidal activity in 10 mM Na-phosphate buffer pH 5.5, containing 0.25% glucose by counting the numbers of colonies of surviving bacteria at serial, twofold dilutions from 300 μg/ml down to 19 ng/ml of each peptide (CFU-assay; Steinberg and Lehrer, 1997, Methods Mol. Biol. 78, 169-186).
Staphylococcus aureus is a major skin pathogen, which causes skin infections, in particular in atopic dermatitis. The sensitivity of S. aureus ATCC 6538 towards several CIDAMPs was assessed using the CFU-assay as above (see Example 1). HR 1-18, which lacks S. aureus.-bactericidal activity, is converted in a S. aureus-cidal peptide, when all His are replaced by Arg (HR 1-18 4H-4R; see Table 13 and FIG. 9). […] HR 1-18 4H-4R is rich in Ser and Arg and contains a single Leu residue. When this single Leu was replaced by Gly in S. aureus-cidal HR 1-18 4H-4R (forming HR 1-18 4H-4R/L-G), S. aureus-cidal activity was abolished at both pH 7.0 and pH 5.5 (see Table 13 and FIG. 9).

GRHGSGLGHSSSHGQHGSGSGGSSSRGPY (Modified peptide derived from human hornerin (HR 1-17 R2677G))
MBC90 ([1]; pH 5.0, 0.25% glucose): 0.0375 µg/mL | MBC100 ([1]; pH 5.0, 0.25% glucose): 0.15 µg/mL | MBC90 [2]: 300 µg/mL | MBC100 [2]: >300 µg/mL

CCCCCCCCCCCCCCCC(=O)SC[C@H](NC(=O)[C@H](CCCNC(=N)N)NC(=O)CNC(=O)[C@H](CCCNC(=N)N)NC(=O)CNC(=O)[C@H](CCCNC(=N)N)NC(=O)CNC(=O)CNC(=O)[C@H](CCCNC(=N)N)NC(=O)CNC(=O)CNC(=O)[C@H](CCCNC(=N)N)NC(=O)[C@H](CCCNC(=N)N)NC(=O)CN)C(N)=O [C-Pal-GR13] (H-GRRGGRGGRGRGRC(Palmitoyl)-NH2)
CC50 [3]: > 32 µg/mL

HAHSGHGQSTQRGSRTAGRRGSGH (Peptide derived from human filaggrin-2 (FLG-2 2082-2105)) [FLG-22082-2105]
MBC90 ([1]; pH 5.5, 0.25% glucose): <0.075 µg/mL | MBC100 ([1]; pH 5.5, 0.25% glucose): 0.038 µg/mL | reduction of candidacidal activity at pH 7.2 versus pH 5.5 (fold) ([2]; pH 7.2 vs pH 5.5): ~50 fold

GRRGSGLGRSSSRGQRGSGSGR [HR 1-18 HR]
CC50 [3]: > 32 µg/mL | HC50 [4]: > 300 µg/mL

CCCCCCCCCCCCCCCC(=O)NCC(=O)N[C@@H](CCCN)C(=O)NCC(=O)N[C@@H](CCCN)C(=O)O [Pal-GOrn4, Pal-GOGO] (HELM PEPTIDE1{[CCCCCCCCCCCCCCCC(=O)[*:2]].G.[Orn].G.[Orn]}$$$$V2.0)
CC50 [3]: > 32 µg/mL | HC50 [4]: 80 µg/mL

N=C(N)NCCC[C@H](NC(=O)[C@H](Cc1c[nH]cn1)NC(=O)[C@H](CO)NC(=O)[C@H](CCCNC(=N)N)NC(=O)[C@H](CCCNC(=N)N)NC(=O)[C@H](CS)NC(=O)[C@H](CCCNC(=N)N)NC(=O)[C@H](Cc1c[nH]cn1)NC(=O)[C@H](Cc1c[nH]cn1)NC(=O)[C@@H](N)CO)C(=O)N[C@@H](CS)C(=O)O [LCE3A50-60] (H-SHHRCRRSHRC-OH)
CC50 [3]: > 32 µg/mL

SHHRRRRSHCH [LCE1B78-88]
CC50 [3]: > 32 µg/mL

CCCCCCCCCCCCCC(=O)NCC(=O)N[C@@H](CCCNC(=N)N)C(=O)N[C@@H](Cc1c[nH]cn1)C(=O)NCC(=O)N[C@@H](CO)C(=O)NCC(=O)N[C@@H](CC(C)C)C(=O)NCC(=O)N[C@@H](Cc1c[nH]cn1)C(=O)N[C@@H](CO)C(=O)N[C@@H](CO)C(=O)N[C@@H](CO)C(=O)N[C@@H](Cc1c[nH]cn1)C(=O)NCC(=O)N[C@@H](CCC(N)=O)C(=O)N[C@@H](Cc1c[nH]cn1)C(=O)NCC(=O)N[C@@H](CO)C(=O)NCC(=O)N[C@@H](CO)C(=O)NCC(=O)N[C@@H](CCCNC(=N)N)C(=O)O [Myr-HR 1-18] (HELM PEPTIDE1{[CCCCCCCCCCCCCC(=O)[*:2]].G.R.H.G.S.G.L.G.H.S.S.S.H.G.Q.H.G.S.G.S.G.R}$$$$V2.0)
CC50 [3]: 32 µg/mL (≈ 13.9 µM) | HC50 [4]: > 300 µg/mL

SHHRHFRSHQCR [LCE3C55-66]
CC50 [3]: > 32 µg/mL

GRHGSGLGHSSSHGQHGSGSGR [HR 1-18]
CC50/MBC90 (S.aureus) [5]: No activity | CC50 [3]: > 32 µg/mL and > 15.2 µM | HC50 [4]: > 300 µg/mL | HC50 at 1 h ([4]; human, washed erythrocytes from EDTA-blood, pH 7.4): > 143 µM

GGHGSGLGHSSSHGQHGSGSGRSSSRGPY (Modified peptide derived from human hornerin (HR 1-17 R2657G))
MBC90 ([1]; pH 5.0, 0.25% glucose): 0.0375 µg/mL | MBC100 ([1]; pH 5.0, 0.25% glucose): 0.3 µg/mL | MBC90 [2]: >300 µg/mL | MBC100 [2]: >300 µg/mL

CCCCCCCCCCCCCCCC(=O)NCC(=O)N[C@H](CCCN)C(=O)NCC(=O)N[C@H](CCCN)C(=O)O [D-Pal-GOrn4, D-Pal-GODGOD] (Palmitoyl-G[dOrn]G[dOrn]-OH)
CC50 [3]: > 32 µg/mL | HC50 [4]: 55 µg/mL
